Laboratory results reported in patent publication US11578058B2, “Heterocyclic compounds for inhibiting TYK2 activities” (Beijing InnoCare Pharma Tech Co., Ltd., priority 2020, dated 2023).
Blank lines part the entries; values can stand above or below the compound they belong to.

Assays:
[1] = In vivo rat PK determination; set-up: species or system Sprague Dawley rats; settings: for F: PO (5 mpk) vs IV (1 mpk); for AUClast / Cmax: PO (5 mpk), n = 3
Procedure: The pharmacokinetics of Compound 3 of the present invention and the reference compound BMS-986165 were evaluated. Compound 3 has an OCD3 on a benzene ring, whereas the reference compound has an CD3 on an amide moiety. Methyl group is typically labile in vivo, subject to hydrolysis by amidase in the case of methylamide and to oxidative demethylation by CYPs in the case of methoxy and methyltriazole. Substituting methyl with tri-deuterated methyl improves the bioavailability and in vivo exposure of the compound and provides a better efficacy of the compound under the same dose.
Compound 3 and the reference compound in a 0.5 mg/mL solution containing 5% N,N-dimethylacetamide+20% solutol+75% saline were orally administered to three male Sprague Dawley rats at a dose of 5 mg/kg. Blood samples were collected at 0.25, 0.5, 1, 2, 4, 8 and 24 hours after administration. The concentrations of the compound in the plasma were quantified by LC-MS/MS using an API-4500 mass spectrometer. The limit of quantification (LOQ) of analysis was 1 ng/mL. The pharmacokinetic (PK) parameters were calculated by the non-compartmental method using WinNonlin and are present in Table 3.

[2] = test system: anti-CD40 antibody-induced colitis; assay: Anti-CD40 antibody-induced colitis animal model; format: in vivo, CB17-Scid mice; settings: for Spleen weight, Mean: Day 8; for protection from colitis (body weight loss and spleen enlargement) versus vehicle group: Compound 3 at 1.5, 5 and 15 mg/kg, reference compound at 5 mg/kg, oral twice daily; for body weight loss after treatment in anti-CD40 colitis (IBD) model: mice
Procedure: The female CB17-Scid mice (8-10 weeks old, 18-20 g) from Beijing Vital River laboratory were randomly divided into 5 groups (n=8 per group). On Day 0, colitis was induced in mice each with a single intraperitoneal injection of 100 μg of FGK4.5 anti-CD40 mAb (BioXCell, Cat. No. EB0016-2) in PBS. […] On a daily basis, mice were weighed and monitored for signs of colitis including body weight loss and the accompanying loose stools and diarrhea. On Day 8, all animals were euthanized. Spleen tissues were collected and weighed.

[3] = In vivo rat PK determination; set-up: species or system Sprague Dawley rats; settings: IV (1 mpk); for CL / Vss: n = 3; for T1/2: n = 3 (header span assumed)
[4] = test system: IL-12-induced IFN-γ secretion in NK92 cells; assay: Inhibition of IL-12-induced IFN-γ secretion in NK92 cells (ELISA); format: cell-based; settings: Homo sapiens, IL-12, 24 hours, read-out: IC50 (NK92_IL12/IFN-γ)
Procedure: The effect of the compounds of the present invention on IFN-γ secretion induced by TYK2 in NK92 cells is evaluated by an enzyme-linked immunosorbent assay (ELISA) (Table 2).
IL-12 receptor is mainly expressed in activated T-cells, NK cells (NK92 is a NK cell line), DC cells, and B-cells. When binding to IL-12, it activates JAK2/TYK2 signal transduction pathway within NK cells and T lymphocytes, thereby inducing secretion of IFN-γ.
The experimental method is generally described below:
The 96-well plate is then incubated overnight in a 37° C./5% CO2 incubator.
The plate is centrifuged at 800 rpm for 10 minutes at room temperature and 50 μL of the supernatant from each well is transferred to another 96-well plate (Sigma, Cat No. CLS3695) coated with anti-IFN-γ antibody. The amount of IFN-γ secretion is detected following the instruction from the Human IFN-gamma DuoSet ELISA kit (R & D Systems, Cat No. DY285B). […] The percentage of inhibition on IL-12 induced IFN-γ secretion in NK-92 cells by the test compound is calculated using the following formula: […]
The IC50 value of the test compound is calculated from 8 concentration points using the XLfit software (ID Business Solutions Ltd., UK) by the following formula: […]
Where Y is the percentage of inhibition, X is the logarithm of the concentration of the test compound, Bottom is the bottom plateau value of the S-shaped curve, Top is the top plateau value of the S-shaped curve, and slope factor is the slope coefficient of the curve.

Structure (SMILES): [2H]C([2H])([2H])NC(=O)c1nnc(NC(=O)C2CC2)cc1Nc1cccc(-c2ncn(C)n2)c1OC [BMS-986165, reference compound]
F [1]: 46% | AUClast [1]: 2828 ng·h/mL | Cmax [1]: 632 ng/mL | Spleen weight, Mean ([2]; 5 mg/kg oral twice daily): 0.036 g | protection from colitis (body weight loss and spleen enlargement) versus vehicle group [2]: significantly protected mice from colitis | CL [3]: 14 mL/min/kg | Vss [3]: 1.5 L/kg | T1/2 [3]: 3.3 h | IC50 [4]: 17 nM

Structure (SMILES): [2H]C([2H])([2H])NC(=O)c1nnc(NC(=O)C2CC2)cc1Nc1cccc(-c2ncn(C([2H])([2H])[2H])n2)c1OC [Compound 1, 6-(cyclopropanecarboxamido)-4-((2-methoxy-3-(1-(methyl-d3)-1H-1,2,4-triazol-3-yl)phenyl)amino)-N-(methyl-d3)pyridazine-3-carboxamide]
IC50 [4]: 16 nM

Structure (SMILES): [2H]C([2H])([2H])n1cnc(-c2cccc(Nc3cc(NC(=O)C4CC4)nnc3C(=O)NC)c2OC)n1 [Compound 2, 6-(cyclopropanecarboxamido)-4-((2-methoxy-3-(1-(methyl-d3)-1H-1,2,4-triazol-3-yl)phenyl)amino)-N-methylpyridazine-3-carboxamide]
body weight loss after treatment in anti-CD40 colitis (IBD) model [2]: no significant body weight loss | IC50 [4]: 13 nM

Structure (SMILES): [2H]C([2H])([2H])Oc1c(Nc2cc(NC(=O)C3CC3)nnc2C(=O)NC)cccc1-c1ncn(C)n1 [Compound 3, 6-(cyclopropanecarboxamido)-4-((2-(methoxy-d3)-3-(1-methyl-1H-1,2,4-triazol-3-yl)phenyl)amino)-N-methylpyridazine-3-carboxamide]
F [1]: 92% | AUClast [1]: 6560 ng·h/mL | Cmax [1]: 971 ng/mL | in vivo exposure compared with reference compound ([1]; oral 5 mg/kg): better in vivo exposures than the reference compound | Spleen weight, Mean ([2]; 1.5 mg/kg oral twice daily): 0.060 g | Spleen weight, Mean ([2]; 5 mg/kg oral twice daily): 0.037 g | Spleen weight, Mean ([2]; 15 mg/kg oral twice daily): 0.025 g | protection from colitis (body weight loss and spleen enlargement) versus vehicle group [2]: significantly protected mice from colitis | body weight loss after treatment in anti-CD40 colitis (IBD) model [2]: no significant body weight loss | CL [3]: 12 mL/min/kg | Vss [3]: 1.1 L/kg | T1/2 [3]: 4.3 h | IC50 [4]: 14 nM

Structure (SMILES): [2H]C([2H])([2H])NC(=O)c1nnc(NC(=O)C2CC2)cc1Nc1cccc(-c2ncn(C)n2)c1OC([2H])([2H])[2H] [Compound 4, 6-(cyclopropanecarboxamido)-4-((2-(methoxy-d3)-3-(1-methyl-1H-1,2,4-triazol-3-yl)phenyl)amino)-N-(methyl-d3)pyridazine-3-carboxamide]
IC50 [4]: 11 nM

IC50 [4]: 52 nM
Structure (SMILES): [2H]C([2H])([2H])NC(=O)c1nnc(NC(=O)[C@@H]2CC2(F)F)cc1Nc1cccc(-c2ncn(C)n2)c1OC [Compound 5, (S)-6-(2,2-difluorocyclopropane-1-carboxamido)-4-((2-methoxy-3-(1-methyl-1H-1,2,4-triazol-3-yl)phenyl)amino)-N-(methyl-d3)pyridazine-3-carboxamide]
body weight loss after treatment in anti-CD40 colitis (IBD) model [2]: no significant body weight loss

IC50 [4]: 47 nM
Structure (SMILES): CNC(=O)c1nnc(NC(=O)[C@@H]2CC2(F)F)cc1Nc1cccc(-c2ncn(C)n2)c1OC [Compound 6, (S)-6-(2,2-difluorocyclopropane-1-carboxamido)-4-((2-methoxy-3-(1-methyl-1H-1,2,4-triazol-3-yl)phenyl)amino)-N-methylpyridazine-3-carboxamide]

IC50 [4]: 74 nM
Structure (SMILES): [2H]C([2H])([2H])NC(=O)c1nnc(NC(=O)[C@H]2CC2(F)F)cc1Nc1cccc(-c2ncn(C)n2)c1OC [Compound 7, (R)-6-(2,2-difluorocyclopropane-1-carboxamido)-4-((2-methoxy-3-(1-methyl-1H-1,2,4-triazol-3-yl)phenyl)amino)-N-(methyl-d3)pyridazine-3-carboxamide]
